Source: paper PMC7044277 (Nature Communications, 2020)
Values joined by “and” are separate entries in the source; they are usually repeats but may differ in a detail not shown here. Equal entries are not always repeated.

Key:
Format in all cases: cell-based
Parameters in all cases: GPCRome screening signal at PTGIR / GPCRome screening signal at PTH1R / GPCRome screening signal at PTH2R / GPCRome screening signal at QRFP / GPCRome screening signal at RXFP2 / GPCRome screening signal at RXFP3 / GPCRome screening signal at RXFP4 / GPCRome screening signal at S1PR2 / GPCRome screening signal at S1PR3 / GPCRome screening signal at S1PR4 / GPCRome screening signal at S1PR5 / GPCRome screening signal at SCTR / GPCRome screening signal at SSTR2 / GPCRome screening signal at SSSTR / GPCRome screening signal at SSTR4 / GPCRome screening signal at SSTR5 / GPCRome screening signal at SUCNR1 / GPCRome screening signal at TA1 / GPCRome screening signal at TAAR2 / GPCRome screening signal at TAAR5 / GPCRome screening signal at TAAR6 / GPCRome screening signal at TAAR8 / GPCRome screening signal at TACR1 / GPCRome screening signal at TACR2 / GPCRome screening signal at TACR3 / GPCRome screening signal at TBXA2R / GPCRome screening signal at TSHR / GPCRome screening signal at UTS2R / GPCRome screening signal at VIPR2 / GPCRome screening signal at GPR68 no V2 Tail / GPCRome screening signal at GRM2 / GPCRome screening signal at GRM3: reference not given here
320 non-olfactory GPCRs [1] = target: 320 non-olfactory GPCRs (Homo sapiens, UniProt P21453); settings: receptor S1PR1
320 non-olfactory GPCRs (Homo sapiens, UniProt P21453), sequence (P21453 whole entry): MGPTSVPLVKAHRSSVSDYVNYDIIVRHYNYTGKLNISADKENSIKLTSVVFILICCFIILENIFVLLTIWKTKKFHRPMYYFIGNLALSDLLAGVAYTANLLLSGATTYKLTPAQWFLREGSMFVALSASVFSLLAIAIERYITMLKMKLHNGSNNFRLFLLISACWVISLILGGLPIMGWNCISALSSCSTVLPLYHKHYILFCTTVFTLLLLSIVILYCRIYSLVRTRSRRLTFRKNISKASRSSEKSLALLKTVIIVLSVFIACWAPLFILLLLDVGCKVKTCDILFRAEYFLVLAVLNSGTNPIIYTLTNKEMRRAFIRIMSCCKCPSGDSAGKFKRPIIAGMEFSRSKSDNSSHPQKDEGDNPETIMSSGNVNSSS

320 non-olfactory GPCRs [2] = target: 320 non-olfactory GPCRs (Homo sapiens, UniProt P30872); settings: receptor SSTR1
320 non-olfactory GPCRs (Homo sapiens, UniProt P30872), sequence (P30872 whole entry): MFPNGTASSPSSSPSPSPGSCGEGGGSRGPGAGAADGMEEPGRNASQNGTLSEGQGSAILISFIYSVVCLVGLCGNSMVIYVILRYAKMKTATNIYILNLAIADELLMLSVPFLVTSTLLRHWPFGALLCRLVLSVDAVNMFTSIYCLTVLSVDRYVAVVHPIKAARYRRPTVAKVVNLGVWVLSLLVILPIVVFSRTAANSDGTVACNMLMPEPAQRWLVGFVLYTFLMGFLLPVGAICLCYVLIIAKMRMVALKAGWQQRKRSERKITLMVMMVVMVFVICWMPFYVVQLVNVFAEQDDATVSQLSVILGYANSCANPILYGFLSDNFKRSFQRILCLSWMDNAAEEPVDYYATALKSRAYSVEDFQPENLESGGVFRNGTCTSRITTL

320 non-olfactory GPCRs [3] = target: T1, 320 non-olfactory GPCRs (Homo sapiens, UniProt Q969N4); settings: receptor TAAR8
T1 construct: expressed in transfected cells; host or cells: HTLA cells
T1 sequence (Q969N4 whole entry): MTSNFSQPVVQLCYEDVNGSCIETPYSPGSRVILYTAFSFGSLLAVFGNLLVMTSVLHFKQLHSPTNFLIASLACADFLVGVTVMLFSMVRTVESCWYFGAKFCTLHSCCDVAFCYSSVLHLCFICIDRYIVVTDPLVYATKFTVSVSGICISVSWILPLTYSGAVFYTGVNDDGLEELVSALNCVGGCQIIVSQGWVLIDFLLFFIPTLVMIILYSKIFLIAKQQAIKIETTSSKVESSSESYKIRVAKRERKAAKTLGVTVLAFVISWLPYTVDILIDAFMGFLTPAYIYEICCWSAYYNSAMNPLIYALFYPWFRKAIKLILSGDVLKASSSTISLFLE

320 non-olfactory GPCRs [4] = target: T2, 320 non-olfactory GPCRs (Homo sapiens, UniProt P16473); settings: receptor TSHR
T2 construct: expressed in transfected cells; host or cells: HTLA cells
T2 sequence (P16473 21-764): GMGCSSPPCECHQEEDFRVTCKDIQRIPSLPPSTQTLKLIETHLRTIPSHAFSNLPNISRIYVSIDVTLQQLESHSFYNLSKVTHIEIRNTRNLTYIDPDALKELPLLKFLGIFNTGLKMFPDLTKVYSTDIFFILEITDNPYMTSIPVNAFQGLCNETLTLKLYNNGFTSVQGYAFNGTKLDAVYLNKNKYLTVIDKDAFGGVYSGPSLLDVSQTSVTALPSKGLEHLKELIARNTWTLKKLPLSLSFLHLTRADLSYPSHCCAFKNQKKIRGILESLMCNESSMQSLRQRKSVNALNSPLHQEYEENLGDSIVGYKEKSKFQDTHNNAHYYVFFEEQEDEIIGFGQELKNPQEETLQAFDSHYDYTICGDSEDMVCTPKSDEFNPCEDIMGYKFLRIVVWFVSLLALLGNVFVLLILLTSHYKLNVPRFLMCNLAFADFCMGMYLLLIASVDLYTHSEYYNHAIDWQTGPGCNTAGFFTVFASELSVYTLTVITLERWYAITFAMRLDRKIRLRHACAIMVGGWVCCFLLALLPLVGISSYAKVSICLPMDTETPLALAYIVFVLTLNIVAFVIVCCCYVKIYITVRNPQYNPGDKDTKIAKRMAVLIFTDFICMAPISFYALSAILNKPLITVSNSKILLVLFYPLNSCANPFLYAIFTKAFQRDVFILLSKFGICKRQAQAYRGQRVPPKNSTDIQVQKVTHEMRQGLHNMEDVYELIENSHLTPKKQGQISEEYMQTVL

[5] = Fig_5f, single replicate values
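For GPCRome agonism screen response in this document: fold over basal response of each receptor without drug.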

SMILES | GPCRome screening signal at S1PR1 (320 non-olfactory GPCRs [1]; [5]) | GPCRome screening signal at SSTR1 (320 non-olfactory GPCRs [2]; [5]) | GPCRome screening signal at TAAR8 (320 non-olfactory GPCRs [3]; [5]) | GPCRome screening signal at TSHR (320 non-olfactory GPCRs [4]; [5]) | GPCRome agonism screen response (320 non-olfactory GPCRs [1]; replicate values, Fig_4g) | GPCRome agonism screen response (320 non-olfactory GPCRs [2]; replicate values, Fig_4g) | GPCRome agonism screen response (320 non-olfactory GPCRs [3]; replicate values, Fig_4g) | GPCRome agonism screen response (320 non-olfactory GPCRs [4]; replicate values, Fig_4g)
CCOc1ccccc1CCC(C)NCC1(O)CCCCC1.Cl (racemic) [Fig_5f] | 0.7005 and 1.113 and 2.609 and 1.363 | 2.563 and 1.311 and 1.193 and 0.9402 | 0.6115 and 0.4578 and 0.5144 and 0.5546 | 0.6627 and 1.386 and 0.8068 and 1.0471 |  |  |  | 
CCOc1cccc2cc(C(C)NCC3(O)CCCCC3)oc12 (centres unmarked) [O4LE6] |  |  |  |  | 2.353 and 1.219 and 1.439 and 0.7423 | 1.245 and 0.3022 and 1.123 and 1.305 | 0.2595 and 0.5748 and 0.5852 and 0.7484 | 0.633 and 1.167 and 0.8187 and 0.6635
